{"source": "patent US5399562A", "about": "“Indolones useful as serotonergic agents” (G. D. Searle & Co., priority 1994, dated 1995)", "key": {"[1]": {"biological_target": "5-HT4 receptor (Rattus norvegicus, UniProt Q62758)", "sequence (Q62758 whole entry)": "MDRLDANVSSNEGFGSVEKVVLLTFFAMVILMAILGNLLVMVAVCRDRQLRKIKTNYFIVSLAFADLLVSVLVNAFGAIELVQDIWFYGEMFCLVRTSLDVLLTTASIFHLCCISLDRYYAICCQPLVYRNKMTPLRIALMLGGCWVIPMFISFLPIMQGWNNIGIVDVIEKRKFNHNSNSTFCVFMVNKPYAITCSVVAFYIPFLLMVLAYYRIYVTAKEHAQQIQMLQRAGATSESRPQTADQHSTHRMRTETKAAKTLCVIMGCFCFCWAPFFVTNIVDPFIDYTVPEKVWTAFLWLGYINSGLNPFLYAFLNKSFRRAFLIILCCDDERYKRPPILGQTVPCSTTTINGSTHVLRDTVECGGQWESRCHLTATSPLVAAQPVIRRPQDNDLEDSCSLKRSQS", "assay": "cell-based", "settings": "rat esophagus TMM contracted with carbachol (3 μM), 37° C., cumulative addition; read-out: 5-HT4 Agonism (Rat TMM) In Vitro Assay: EC50 values", "method": "(§1) The 5-HT4 agonist activity was determined in the in vitro rat tunica muscularis mucosae (TMM) assay described herein. (Baxter et al., Naunyn Schmied Arch. Pharmacol, 1991, 343, 439). […] One with skill in the art could determine the activity of the compounds of the present invention using the methodology of these assays, described herein, without undue experimentation.\nAgonist activity was determined utilizing relaxation of carbachol-contracted rat tunica muscularis mucosae (TMM). One 2 cm segment of intrathoracic esophagus proximal to the diaphragm was removed from male rats, weighing approximately 300 gm, and the outer muscle layers removed. The inner tunica muscularis mucosa was mounted under 0.2-0.3 g of tension in a tissue bath containing oxygenated Tyrode's solution at 37° C. […] Following a 30 min equilibrium period, tissues were isometrically contracted with carbachol (3 μM) to obtain a tonic contraction. A stable plateau was obtained within 20 min when test compound was added cumulatively to relax the muscle strip. EC50 values were obtained for each compound in tissues from 5 rats."}, "[2]": {"test_system": "5-HT4 receptors", "settings": "Craig and Clarke; cited from earlier work"}, "[3]": {"test_system": "5-HT4 receptor", "settings": "Dumuis et al. 1989, mouse embryonic colliculi neurons; cited from earlier work"}, "[4]": {"test_system": "myenteric neurons", "settings": "Nemeth and Gullikson 1989; cited from earlier work"}, "[5]": {"test_system": "dogs", "settings": "cited from earlier work; for antroduodenal motility in dogs: Van Nueten et al. 1989"}, "[6]": {"biological_target": "T1, 5-HT3 receptor (Rattus norvegicus, UniProt P35563)", "T1 construct": "Brain cortices were obtained from male rats and a membrane fraction prepared by standard techniques; from tissue; host or cells: male rat brain cortex membranes", "T1 sequence (P35563 24-483)": "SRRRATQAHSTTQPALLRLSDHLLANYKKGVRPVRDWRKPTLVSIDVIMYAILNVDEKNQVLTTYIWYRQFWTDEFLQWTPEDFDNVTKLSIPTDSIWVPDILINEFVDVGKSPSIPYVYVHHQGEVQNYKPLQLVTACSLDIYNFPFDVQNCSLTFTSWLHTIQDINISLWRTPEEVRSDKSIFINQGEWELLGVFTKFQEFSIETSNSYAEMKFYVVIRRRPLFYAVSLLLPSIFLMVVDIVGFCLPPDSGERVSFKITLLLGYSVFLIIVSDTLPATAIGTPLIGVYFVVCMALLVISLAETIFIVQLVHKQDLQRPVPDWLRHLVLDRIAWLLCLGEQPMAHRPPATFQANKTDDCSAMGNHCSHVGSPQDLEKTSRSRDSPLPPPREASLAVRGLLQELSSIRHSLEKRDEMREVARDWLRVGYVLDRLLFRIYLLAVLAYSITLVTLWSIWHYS", "assay": "5-HT3 radioligand receptor binding assay ([3H]-GR65630), rat brain cortex membranes", "method": "as §1\nProcedure: GR65630 binds to the 5-HT3 receptor. Brain cortices were obtained from male rats and a membrane fraction prepared by standard techniques. 0.04 mg of membrane prep was incubated with 0.2 nM [^3 H]-GR65630 for 66 minutes at 22° C. […] Membranes were filtered and washed 3 times and the filters were counted to determine [^3 H]-GR65630 specifically bound. [Kilpatrick GJ, Jones BJ and Tyers MB, Identification and Distribution of 5-HT3 Receptors in Rat Brain Using Radioligand Binding Assay, Nature, 330, 746-748 (1987)]."}, "[7]": {"test_system": "man", "settings": "Gore et al. 1990, man; cited from earlier work"}, "[8]": {"test_system": "man", "settings": "Talley et al. 1989, man; cited from earlier work"}, "[9]": {"test_system": "gastric emptying", "settings": "Gidda et al. 1988; cited from earlier work"}, "[10]": {"test_system": "gastric emptying", "settings": "Buchheit et al. 1985; cited from earlier work"}, "[11]": {"test_system": "guinea pig stomach muscle strips", "settings": "cited from earlier work; for guinea pig stomach muscle strip contraction in vitro: Buchheit et al. 1985"}, "[12]": {"test_system": "GI tract", "settings": "various animal models; cited from earlier work"}, "[13]": {"test_system": "5-HT3", "settings": "in vivo; cited from earlier work"}}, "note": "Counter-ions that a name gives are not always drawn."}
{"smiles": "CC1(C)C(=O)N(C(=O)NC[C@@H]2CCN3CCC[C@@H]23)c2ccccc21", "note": "(relative stereo) [Example 8, Exo-2,3-dihydro-3,3-dimethyl-N-[(hexahydro-1H-pyrrolizin-1S-yl)methyl]-2-oxo-1H-indole-1carboxamide, hydrate hydrochloride]", "values": [{"measurement": "EC50", "setting": "[1]", "result": "> 10", "unit": "µM"}]}
{"smiles": "COc1cc(N)c(Cl)cc1C(=O)NC1CCN2CCCC1C2", "note": "(centres unmarked) [BRL-24924]", "values": [{"measurement": "peristaltic reflex evoked, receptor mechanism", "setting": "[2]", "result": "mediated through agonism at 5-HT4 receptors"}, {"measurement": "prokinetic activity, correlation with agonist activity at 5-HT4 receptor", "setting": "[3]", "result": "correlate with agonist activity"}, {"measurement": "ability to depolarize myenteric neurons, relation to 5-HT3 antagonism", "setting": "[4]", "result": "unrelated to their properties of 5-HT3 antagonism"}]}
{"smiles": "COc1cc(N)c(Cl)cc1C(=O)NC1CCN(CCCOc2ccc(F)cc2)CC1OC", "note": "(centres unmarked) [Cisapride]", "values": [{"measurement": "antroduodenal motility in dogs", "setting": "[5]", "result": "enhanced"}, {"measurement": "prokinetic activity, correlation with agonist activity at 5-HT4 receptor", "setting": "[3]", "result": "correlate with agonist activity"}, {"measurement": "ability to depolarize myenteric neurons, relation to 5-HT3 antagonism", "setting": "[4]", "result": "unrelated to their properties of 5-HT3 antagonism"}]}
{"smiles": "CN1[C@@H]2CC[C@H]1C[C@@H](NC(=O)N1C(=O)C(C)(C)c3ccccc31)C2", "note": "[Example 1, Endo-2,3-dihydro-3,3-dimethyl-N-(8-methyl-8-azabicyclo[3.2.1]octan-3-yl)-2-oxo-1H-indole-1-carboxamide, hydrochloride hydrate]", "values": [{"measurement": "EC50", "setting": "[1]", "result": 1.21, "unit": "µM"}, {"measurement": "Ki", "setting": "[6]", "result": 0.004, "unit": "µM"}]}
{"smiles": "CN1[C@@H]2CC[C@H]1C[C@@H](NC(=O)N1C(=O)C3(CC3)c3ccccc31)C2", "note": "[Example 2, Endo-1',2'-dihydro-N-(8-methyl-8-azabicyclo[3.2.1 octan-3-yl)-2'-oxo-spiro[cyclopropane-1,3'-(3'H)-indole]-1'-carboxamide, hydrate hydrochloride]", "values": [{"measurement": "EC50", "setting": "[1]", "result": 0.79, "unit": "µM"}, {"measurement": "Ki", "setting": "[6]", "result": 0.0041, "unit": "µM"}]}
{"smiles": "O=C(N[C@@H]1[C@@H]2CC3C[C@H]1CN(C3)C2)N1C(=O)C2(CC2)c2ccccc21", "note": "[Example 3, Anti-N-(1-azatricyclo[3.3.1.1^3,7]decan-4-yl)-2'-oxo-spiro[cyclopropane-1,3'-[3'H]indole]-1'(2'H)-carboxamide, monohydrochloride]", "values": [{"measurement": "EC50", "setting": "[1]", "result": 2.22, "unit": "µM"}]}
{"smiles": "O=C(N[C@H]1[C@@H]2CC3C[C@H]1CN(C3)C2)N1C(=O)C2(CC2)c2ccccc21", "note": "[Example 4, Syn-N-(1-azatricyclo[3.3.1.1^3,7]decan-4-yl)-2'-oxo-spiro[cyclopropane-1,3'-[3'H]indole]-1'(2'H)-carboxamide, monohydrochloride]", "values": [{"measurement": "EC50", "setting": "[1]", "result": 2.53, "unit": "µM"}]}
{"smiles": "O=C(NCC12CCN(CC1)CC2)N1C(=O)C2(CC2)c2ccccc21", "note": "[Example 5, N-(1-azabicyclo[2.2.2]octan-4-ylmethyl)-2'-oxo-spiro[cyclopropane-1,3'-[3'H]indole]-1'(2'H)-carboxamide, monohydrochloride]", "values": [{"measurement": "EC50", "setting": "[1]", "result": "> 10", "unit": "µM"}]}
{"smiles": "O=C(NCC12CCCN1CCC2)N1C(=O)C2(CC2)c2ccccc21", "note": "[Example 6, 2'-oxo-N-[(hexahydro-1H-pyrrolizin-7a(5H)-yl)-methyl]spiro[cyclopropane-1,3'-[3'H]indole]1'(2'H)carboxamide, monohydrochloride]", "values": [{"measurement": "EC50", "setting": "[1]", "result": "> 10", "unit": "µM"}]}
{"smiles": "O=C(NCCC12CCCN1CCC2)N1C(=O)C2(CC2)c2ccccc21", "note": "[Example 7, 2'-oxo-N-[2-(hexahydro-1H-pyrrolizin-7a(5H)yl)ethyl]spiro[cyclopropane-1,3'-[3'H]indole-1'(2'H)-carboxamide, monohydrochloride]", "values": [{"measurement": "EC50", "setting": "[1]", "result": 7.92, "unit": "µM"}]}
{"smiles": "Cc1nccn1CC1CCc2c(c3ccccc3n2C)C1=O", "note": "(centres unmarked) [GR38032]", "values": [{"measurement": "GI transit", "setting": "[7]", "result": "failed to accelerate"}, {"measurement": "colonic transit in man", "setting": "[7]", "result": "slowed"}, {"measurement": "effect on GI transit in man (conclusion)", "setting": "[8]", "result": "does not have a major effect on GI transit in man"}, {"measurement": "mouth-to-cecum transit times", "setting": "[8]", "result": "did not alter"}, {"measurement": "small intestinal transit times", "setting": "[8]", "result": "did not alter"}, {"measurement": "gastric emptying", "setting": "[9]", "result": "enhanced"}]}
{"smiles": "Cc1[nH]cnc1CCC(=O)c1cn(C)c2ccccc12", "note": "[GR65630]", "values": [{"measurement": "Bmax", "setting": "[6]; [3H]-GR65630 radioligand, rat brain cortex membranes", "result": 154, "unit": "fmol/mg protein"}, {"measurement": "% Specific Binding", "setting": "[6]; [3H]-GR65630 radioligand, non-specific binding with 1 uM ICS 205-930", "result": 70, "unit": "%"}]}
{"smiles": "CN1[C@@H]2CC[C@H]1C[C@@H](OC(=O)c1c[nH]c3ccccc13)C2", "note": "[ICS 205-930]", "values": [{"measurement": "gastric emptying rates in vivo", "setting": "[10]", "result": "increases"}, {"measurement": "effect on responses to cisapride when coadministered", "setting": "[5]; Van Nueten et al. 1989, coadministered with cisapride", "result": "did not affect"}, {"measurement": "antroduodenal motility in dogs", "setting": "[5]", "result": "did not"}, {"measurement": "guinea pig stomach muscle strip contraction in vitro", "setting": "[11]", "result": "enhanced"}, {"measurement": "gastric emptying", "setting": "[9]", "result": "enhanced"}]}
{"smiles": "CN1[C@@H]2CC[C@H]1C[C@@H](OC(=O)c1cc(Cl)cc(Cl)c1)C2", "note": "[MDL 72222]", "values": [{"measurement": "gastric emptying rates in vivo", "setting": "[10]", "result": "increases"}, {"measurement": "guinea pig stomach muscle strip contraction in vitro", "setting": "[11]", "result": "enhanced"}]}
{"smiles": "NCCc1c[nH]c2ccc(O)cc12", "note": "[Serotonin, 5-hydroxytryptamine]", "values": [{"measurement": "peristalsis in the GI tract", "setting": "[12]", "result": "promote peristalsis"}, {"measurement": "peristaltic reflex evoked, receptor mechanism", "setting": "[2]", "result": "mediated through agonism at 5-HT4 receptors"}]}
{"smiles": "CCN(CC)CCNC(=O)c1cc(Cl)c(N)cc1OC", "note": "[metoclopramide]", "values": [{"measurement": "gastric emptying rates in vivo", "setting": "[10]", "result": "increases"}, {"measurement": "5-HT3-mediated Bezold Jarisch reflex", "setting": "[13]", "result": "blocks"}, {"measurement": "guinea pig stomach muscle strip contraction in vitro", "setting": "[11]", "result": "enhanced"}, {"measurement": "electrical-field stimulated contractions in guinea pig stomach strips", "setting": "[11]; Gunning and Naylor 1985", "result": "enhanced"}]}
{"smiles": "COc1cc(N)c(Cl)cc1C(=O)NC1CN2CCC1CC2", "note": "(centres unmarked) [zacopride]", "values": [{"measurement": "gastric emptying", "setting": "[9]", "result": "enhanced"}]}
